Experimental data taken from paper PMC4805082, “Seizure control by decanoic acid through direct AMPA receptor inhibition” (Brain, 2015).

Columns and labels:
[1] = system: epileptiform activity (burst discharges) in hippocampal slices induced by low-Mg2+; experiment: In vitro seizure model, low-Mg2+ induced epileptiform activity in hippocampal slices; assay type: cell-based, rat; conditions: 1 mM; low magnesium
Experimental: (§1) Male Sprague-Dawley rats (postnatal Days 19–30) were sacrificed using an overdose of isoflurane or pentobarbitone (500 mg/kg). After decapitation the brain was rapidly removed, the hippocampus or entorhinal cortex-hippocampus slices was dissected from the brain and […] thick transverse slices were prepared on a VT1200S vibratome (Leica) or Vibratome (Vibratome® 1500 sectioning system, Intracell). The slicing was performed in ice-cold sucrose-based solution containing (in mM): 75 sucrose, 87 NaCl, 22 glucose, 2.5 KCl, 7 MgCl2, 1.25 NaH2PO4, 0.5 CaCl2 and 25 NaHCO3, pH 7.4, 315–330 mOsm equilibrated with 95% O2 plus 5% CO2. The slices were then stored in a continuously oxygenated humidified interface holding chamber containing oxygenated artificial CSF (in mM): 120 NaCl, 22 glucose, 2.5 KCl, 1.3 MgSO4, 1 NaH2PO4, 25 NaHCO3 and 2.5 CaCl2, pH 7.4 296 mOsm, where they recovered for at least 1 h before use.
During the experiment, slices were transferred from the interface chamber into a submerged recording chamber, designed to optimize wash-in and wash-out of drugs, and continuously perfused using gravity feed at 3–6 ml/min with prewarmed (36°C) oxygenated artificial CSF (95% O2, 5% CO2). Field potentials were recorded with a glass microelectrode (1–2 MΩ) filled with artificial CSF solution placed in stratum radiatum of CA1 and were filtered at 1 kHz and digitized at 2 kHz (using an npi EXT-02F extracellular amplifier recorded with WinEDR software). In the pentylenetetrazol model, the epileptiform (paroxysmal) activity was induced by application of pentylenetetrazol (2 mM) to the perfusate and [K^+] was increased (to 6 mM); in low-Mg^2+ model, the epileptiform activity was elicited by using Mg^2+-free artificial CSF. Once the frequency of the paroxysmal activity was stable for at least 10 min, compounds were applied to the perfusate for the following 40 min, and washed out for a remaining 20 min. The anticonvulsant effects were evaluated by measuring the change in the frequency of the discharges at minute intervals. […]

[2] = system: GABAA receptor mediated IPSCs in hippocampal CA1 pyramidal neurons; experiment: Whole-cell patch clamp, evoked GABAA receptor mediated IPSCs in CA1 pyramidal cells; assay type: cell-based, rat; conditions: 300 µM
Experimental: as §1, with “The slices were then stored in a continuously oxygenated humidified interface holding chamber containing oxygenated artificial CSF (in mM): 120 NaCl, 22 glucose, 2.5 KCl, 1.3 MgSO4, 1 NaH2PO4, 25 NaHCO3 and 2.5 CaCl2, pH 7.4 296 mOsm, where they recovered for at least 1 h before use.” left out
For electrophysiological recording, the slices were placed in a recording chamber constantly perfused with 32–34°C oxygenated artificial CSF solution using a gravity-driven perfusion system. […] Series resistance was monitored throughout experiments using a −5 mV step command and cells showing a >20% change in series resistance, a series of resistance of >20 MΩ or an unstable holding current were rejected. […] Inhibitory postsynaptic current (IPSCs) were recorded in the presence of DL-APV (100 µM), NBQX (10 µM) and CGP55845 (5 µM) to block NMDA-, AMPA- and GABAB-receptors, respectively. […]

[3] = set-up: method as in Wlaz et al., 2012; conditions: mice, gastric gavage 30 mmol/kg; ref Wlaz et al., 2012; cited from earlier work
[4] = system: AMPA receptor mediated EPSCs in hippocampal CA1 pyramidal neurons; experiment: Whole-cell patch clamp, evoked AMPA receptor mediated EPSCs in CA1 pyramidal cells; assay type: cell-based, rat; conditions: n = 6
Experimental: as §1
For electrophysiological recording, the slices were placed in a recording chamber constantly perfused with 32–34°C oxygenated artificial CSF solution using a gravity-driven perfusion system. Whole-cell patch clamp recordings were performed on CA1 pyramidal cells (input resistance 330 ± 70 MΩ) visualized using an infrared differential contrast imaging system. For patching, standard walled borosilicate glass pipettes with a resistance of 2.5–3.5 MΩ were used, filled with an intracellular pipette solution containing (in mM): 120 Cs-methanesulphonate, 10 HEPES, 0.2 EGTA, 8 NaCl, 0.2 MgCl2, 2 Mg-ATP, 0.3Na-GTP, 5 QX314-Br, 10 phosphocreatine, pH adjusted to 7.2 and osmolality adjusted to 296 mOsm. Series resistance was monitored throughout experiments using a −5 mV step command and cells showing a >20% change in series resistance, a series of resistance of >20 MΩ or an unstable holding current were rejected. Recordings of excitatory postsynaptic currents (EPSCs) were performed in the presence of DL-APV (DL-2-amino-5-phosphonopentanoic; 100 µM), picrotoxin (100 µM) and CGP55845 (5 µM) to block NMDA-, GABAA- and GABAB-receptors, respectively. Decanoic acid (Sigma) was added to the perfusion solution. EPSCs were evoked by stimulation of Schaffer collaterals. Paired pulses were evoked with stimulations separated by 50 ms. Inhibitory postsynaptic current (IPSCs) were recorded in the presence of DL-APV (100 µM), NBQX (10 µM) and CGP55845 (5 µM) to block NMDA-, AMPA- and GABAB-receptors, respectively.
Recordings were obtained using a MultiClamp 700B amplifier (Axon instruments) and filtered at 4 kHz, digitized at 10 kHz, and stored on a PC. LabView8 (National instruments) was used for data acquisition and off-line analysis.

CCCCCCCCCC(=O)O [decanoic acid]
effect on epileptiform activity [1]: completely blocked | effect on evoked IPSCs [2]: no significant effect | effect on 1/CV^2 for IPSCs ([2]; versus baseline, n = 6): no effect | brain concentration [3]: up to 240 µM | brain concentration as share of serum levels [3]: 60–80% | decrease of EPSC amplitude ([4]; 100 µM): 17.0 ± 5.6% | decrease of EPSC amplitude ([4]; 300 µM): 38.9 ± 5.5% | effect on 1/CV^2 for EPSCs ([4]; 300 µM, versus baseline): no effect | effect on paired pulse ratio for EPSCs ([4]; 300 µM, versus baseline): did not affect
